Our source for the IC50 values is ChEMBL document CHEMBL1133051, “Design and synthesis of a novel water soluble benzotetrazepinone” (Bioorg Med Chem Lett, 2000).

The structures appear in SMILES notation.

This test concerns MCF7. As to the kind of experiment: Inhibitory concentration of compound against Mer+ breast tumor cell line MCF-7. The settings on record: Homo sapiens. The format is functional, cell-based.

`Cn1nnc2c(C(N)=O)ncn2c1=O` [TEMOZOLOMIDE]: the IC50 worked out at 800 µM.
Consider `CN1N=Nc2cc(C(=O)NCCN3CCOCC3)ccc2N(C)C1=O`, for which inhibition was half-maximal at 80 µM (IC50).
